Experimental data as given in ChEMBL document CHEMBL1156802, “Design and synthesis of novel diaminoquinazolines with in vivo efficacy for beta-catenin/T-cell transcriptional factor 4 pathway inhibition” (J Med Chem, 2010).

experiment: Metabolic stability in rat liver microsomes assessed as half life; format: ADME, Microsome

Row | SMILES | half-life
1 | CN(C)Cc1ccc2c(NCc3ccc(NC(=O)c4ccc(F)cc4)cc3)nc(N(C)C)nc2c1 | 3 min
2 | CCc1ccc2c(NCc3ccc(NC(=O)c4ccc(F)cc4)cc3)nc(N(C)C)nc2c1 | 6 min
3 | Cc1ccc2c(NCc3ccc(NC(=O)c4ccc(F)cc4)cc3)nc(N3CCN(C)CC3)nc2c1 | 3 min
4 | CN(C)c1nc(NCc2ccc(NC(=O)c3ccc(F)cc3)cc2)c2ccc(C=O)cc2n1 | 3 min
5 | CC(=O)c1ccc2c(NCc3ccc(NC(=O)c4ccc(F)cc4)cc3)nc(N(C)C)nc2c1 | 2 min
6 | Cc1ccc2c(NCc3ccc(NC(=O)c4ccc(F)cc4)cc3)nc(N3CCCC3)nc2c1 | 2 min
7 | Cc1ccc2c(NCc3ccc(NC(=O)c4ccc(F)cc4)cc3)nc(N3CCC3)nc2c1 | 7 min
8 | Cc1ccc2c(NCc3ccc(NC(=O)c4ccc(F)cc4)cc3)nc(N3CCNCC3)nc2c1 | 5 min
9 | Cc1ccc2c(NCc3ccc(NC(=O)c4ccc(F)cc4)cc3)nc(N3CCNC(C)(C)C3)nc2c1 | 3 min
10 | Cc1ccc2c(NCc3ccc(NC(=O)c4ccc(F)cc4)cc3)nc(N3CCOCC3)nc2c1 | 6 min
11 | Cc1ccc2c(NCc3ccc(NC(=O)c4ccc(F)cc4)cc3)nc(N3CCN[C@H](C)C3)nc2c1 | 4 min
12 | CN(C)c1nc(NCc2ccc(NC(=O)c3ccc(F)cc3)cc2)c2ccc(CO)cc2n1 | 22 min
13 | CC(O)c1ccc2c(NCc3ccc(NC(=O)c4ccc(F)cc4)cc3)nc(N(C)C)nc2c1 (racemic) | 6 min
14 | CN(C)c1nc(NCc2ccc(NC(=O)c3ccc(F)cc3)cc2)c2ccc(C#N)cc2n1 | 11 min
15 | C=Cc1ccc2c(NCc3ccc(NC(=O)c4ccc(F)cc4)cc3)nc(N(C)C)nc2c1 | 6 min
16 | Cc1ccc2c(NCc3ccc(NC(=O)c4ccc(F)cc4)cc3)nc(N3CCCCC3)nc2c1 | 3 min

Results, then the molecule that gave them:

Row | half-life | SMILES
17 | 6 min | CNc1nc(NCc2ccc(NC(=O)c3ccc(Cl)cc3)cc2)c2cc(C)ccc2n1
18 | 15 min | CNc1nc(NCc2ccc(NC(=O)c3ccc(F)cc3)cc2)c2c(C)cccc2n1
19 | 16 min | CNc1nc(NCc2ccc(NC(=O)c3ccc(-c4ccccc4)cc3)cc2)c2ccccc2n1
20 | 16 min | CNc1nc(NCc2ccc(NC(=O)c3ccc(C)cc3)cc2)c2ccccc2n1
21 | 17 min | CNc1nc(NCc2ccc(NC(=O)c3ccc(Cl)nc3)cc2)c2ccccc2n1
22 | 2 min | CNc1nc(NCc2ccc(NC(=O)c3ccc(Cl)nc3)cc2)c2c(C)cccc2n1
23 | 11 min | CNc1nc(NCc2ccc(NC(=O)c3ccc(Cl)cc3)cc2)c2cccc(C)c2n1
24 | 18 min | CNc1nc(NCc2ccc(NC(=O)c3ccc(Cl)cc3)cc2)c2ccc(C)cc2n1
25 | 30 min | CNc1nc(NCc2ccc(NC(=O)c3ccc(C(F)(F)F)cc3)cc2)c2ccccc2n1
26 | 12 min | CNc1nc(NCc2ccc(NC(=O)c3ccc(Cl)cc3)cc2)c2c(C)cccc2n1
27 | 8 min | CNc1nc(NCc2ccc(NC(=O)c3ccc(Cl)nc3)cc2)c2ccc(C)cc2n1
28 | 22 min | CNc1nc(NCc2ccc(NC(=O)c3ccc(Cl)nc3)cc2)c2cccc(C)c2n1
29 | 10 min | CNc1nc(NCc2ccc(NC(=O)c3ccc(F)cc3)cc2)c2cccc(C)c2n1
30 | > 30 min | CNc1nc(NCc2ccc(NC(=O)c3ccc(F)cc3)cc2)c2ccc(C)cc2n1
31 | 6 min | CNc1nc(NCc2ccc(NC(=O)c3ccc(F)cc3)cc2)c2cc(C)ccc2n1
32 | 10 min | CNc1nc(NCc2ccc(NC(=O)c3ccc(C#N)cc3)cc2)c2ccccc2n1
33 | 13 min | CNc1nc(NCc2ccc(NC(=O)c3ccc(Cl)nc3)cc2)c2cc(C)ccc2n1
34 | 15 min | CNc1nc(NCc2ccc(NC(=O)c3cccc(Cl)c3)cc2)c2ccccc2n1
35 | 21 min | CNc1nc(NCc2ccc(NC(=O)c3ccc(F)cc3)cc2)c2ccccc2n1
36 | 30 min | CNc1nc(NCc2ccc(NC(=O)c3ccc(Cl)cc3)cc2)c2ccccc2n1
37 | 12 min | Cc1ccc2c(NCc3ccc(NC(=O)c4ccc(F)cc4)cc3)nc(N(C)C)nc2c1
38 | 6 min | CCCNc1nc(NCc2ccc(NC(=O)c3ccc(F)cc3)cc2)c2ccc(C)cc2n1
